Reference: ChEMBL document CHEMBL2203207, “Inhibition of monoamine oxidase by derivatives of piperine, an alkaloid from the pepper plant Piper nigrum, for possible use in Parkinson's disease” (Bioorg Med Chem Lett, 2012)

Experiments:
[1] = molecular target: T1, Amine oxidase [flavin-containing] B (Homo sapiens, UniProt P27338); assay: Inhibition of MAO-B assessed as inhibition of kyneuramine conversion to 4-hydroxyquinoline after 20 mins by fluorescence assay
T1 sequence (P27338 whole entry): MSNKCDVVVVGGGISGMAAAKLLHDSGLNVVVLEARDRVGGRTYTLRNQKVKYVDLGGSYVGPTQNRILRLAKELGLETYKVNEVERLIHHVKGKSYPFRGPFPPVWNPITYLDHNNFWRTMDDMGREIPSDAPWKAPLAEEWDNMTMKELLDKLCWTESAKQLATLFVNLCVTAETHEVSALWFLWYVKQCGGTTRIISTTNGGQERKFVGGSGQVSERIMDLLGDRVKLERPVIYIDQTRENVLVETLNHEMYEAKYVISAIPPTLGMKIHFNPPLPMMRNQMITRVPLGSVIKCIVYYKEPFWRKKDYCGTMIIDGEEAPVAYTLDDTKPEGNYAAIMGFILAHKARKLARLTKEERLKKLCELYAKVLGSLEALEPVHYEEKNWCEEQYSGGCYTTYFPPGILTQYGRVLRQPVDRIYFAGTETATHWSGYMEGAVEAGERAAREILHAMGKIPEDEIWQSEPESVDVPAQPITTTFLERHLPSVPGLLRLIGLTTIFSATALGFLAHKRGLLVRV

[2] = molecular target: T2, Amine oxidase [flavin-containing] A (Homo sapiens, UniProt P21397); assay: Inhibition of MAO-A assessed as inhibition of kyneuramine conversion to 4-hydroxyquinoline after 20 mins by fluorescence assay
T2 sequence (P21397 whole entry): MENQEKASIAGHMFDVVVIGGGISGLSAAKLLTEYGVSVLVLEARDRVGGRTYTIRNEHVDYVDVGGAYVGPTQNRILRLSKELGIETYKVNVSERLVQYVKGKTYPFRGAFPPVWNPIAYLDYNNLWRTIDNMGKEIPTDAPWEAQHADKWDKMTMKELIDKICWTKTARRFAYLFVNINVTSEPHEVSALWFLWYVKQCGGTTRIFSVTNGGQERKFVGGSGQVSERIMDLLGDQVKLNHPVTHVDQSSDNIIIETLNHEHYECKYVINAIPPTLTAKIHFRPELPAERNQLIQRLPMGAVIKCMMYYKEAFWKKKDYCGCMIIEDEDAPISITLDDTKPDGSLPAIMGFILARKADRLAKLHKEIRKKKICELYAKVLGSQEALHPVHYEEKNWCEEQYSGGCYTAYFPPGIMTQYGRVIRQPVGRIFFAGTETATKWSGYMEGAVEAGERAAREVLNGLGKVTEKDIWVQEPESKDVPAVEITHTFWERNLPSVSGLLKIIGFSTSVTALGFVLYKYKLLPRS

[3] = molecular target: T3, Albumin (Bos taurus, UniProt P02769); assay: Binding affinity to bovine serum albumin at 16 uM by fluorescence assay; type: ADME; details: cattle, isolated protein
[4] = molecular target: T3, Albumin; assay: Binding affinity to bovine serum albumin at 8.9 uM by fluorescence assay; type: ADME; details: cattle, isolated protein

T3 sequence (P02769 whole entry): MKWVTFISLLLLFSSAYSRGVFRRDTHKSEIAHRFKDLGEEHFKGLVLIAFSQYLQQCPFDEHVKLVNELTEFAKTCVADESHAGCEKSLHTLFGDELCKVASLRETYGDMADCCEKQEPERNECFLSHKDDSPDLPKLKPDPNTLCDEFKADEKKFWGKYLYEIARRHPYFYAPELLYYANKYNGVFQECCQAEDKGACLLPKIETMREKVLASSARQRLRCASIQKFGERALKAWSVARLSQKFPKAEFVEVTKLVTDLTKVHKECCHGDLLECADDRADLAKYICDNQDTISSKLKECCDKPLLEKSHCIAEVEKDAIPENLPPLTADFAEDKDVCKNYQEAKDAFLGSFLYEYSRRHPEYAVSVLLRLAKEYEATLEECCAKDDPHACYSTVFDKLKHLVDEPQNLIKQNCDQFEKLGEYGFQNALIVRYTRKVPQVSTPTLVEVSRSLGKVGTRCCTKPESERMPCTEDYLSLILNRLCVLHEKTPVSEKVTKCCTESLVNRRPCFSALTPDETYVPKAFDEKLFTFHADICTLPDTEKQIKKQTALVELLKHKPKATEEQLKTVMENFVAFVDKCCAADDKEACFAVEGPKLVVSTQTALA

Compound | IC50 [1] [µM] | IC50 [2] [µM] | Activity [3] [%] | Activity [4] [%]
O=C(/C=C/c1ccc2c(c1)OCO2)N1CCOCC1 | 6.39 | > 100 |  | 
S=C(c1ccc2c(c1)OCO2)N1CCCCC1 | 15.4 | > 100 |  | 
O=C(/C=C/c1ccc2c(c1)OCO2)NC1CCCC1 | 1.13 | > 100 |  | 
O=C(CCN1CCCCC1)c1ccc2c(c1)OCO2 | 3.43 | > 100 |  | 
O=C(CN1CCCCC1)c1ccc2c(c1)OCO2 | 3.18 | > 100 |  | 
O=C(/C=C/c1ccc2c(c1)OCO2)NC1CCCCC1 | 0.666 | > 100 |  | 
CC1CCN(C(=O)/C=C/c2ccc3c(c2)OCO3)CC1 | 0.497 | > 100 | 50 | 
O=C(/C=C/c1ccc2c(c1)OCO2)N1CCCC1 | 4.89 | > 100 |  | 
O=C(c1ccc2c(c1)OCO2)N1CCCCCC1 | > 100 | > 100 |  | 
O=C(/C=C/C=C/c1ccc2c(c1)OCO2)N1CCCCC1 [PIPERINE] | 0.483 | 59 |  | 50
